In one data set the test system is Male Sprague Dawley rats. Put plainly: Rat forced swim test (FST). It is filed as in vivo. Particulars: Example 3; Compound 18R 1, 3.2 or 10 mg/kg s.c., second injection vehicle or BIIB-104 0.03 mg/kg; 23.5 h before Swim 2. The protocol: Animals. Male Sprague Dawley rats, aged 8-10 weeks, are used in the experiments. Animals are housed in groups of 2 under controlled temperature (22±3° C.) and relative humidity (30-70%) conditions, with 12-hour light/dark cycles, and with ad libitum food and water. All efforts are made to minimize suffering.
Drugs and Drug Administration. Test compounds, vehicle, and the positive control desipramine are administered subcutaneously (s.c.), with doses calculated based on the free base. A pharmacologically inert vehicle is used. All compounds are administered at a volume of 5 mL/kg. Test compounds (in each case, an AMPAR-PAM+an NMDAR-ant together, or either compound alone) and vehicle are administered 0.5 h after the start of the training swim (Swim 1) and 23.5 h before the test swim (Swim 2). Desipramine is administered 3 times, at 23.5 h, 5 h, and 1 h before the test swim (Swim 2), each time at a dose of 20 mg/kg.
Forced Swim Test (FST). […] Group size is N=10 per treatment. […]
Behavioral scoring is conducted by observers who are blind to the treatment groups. Animals are continuously observed during Swim 2 and the total time spent engaging in the following behaviors is recorded: immobile, swimming, and climbing. […]
Drugs and Drug Administration. Test compounds, vehicle, and the positive control desipramine are administered subcutaneously (s.c.), with doses calculated based on the free base. […]

For data set [1], the system named is Male Wistar Han or Wistar Kyoto rats. Put plainly: Chronic mild stress (CMS) procedure, sucrose intake. The format is in vivo, rat. The settings on record: stressed rats. The protocol: (§1) Animals. Male Wistar Han or Wistar Kyoto rats (Charles River, Sulzfeld, Germany) are brought into the laboratory at the age of 5 weeks (around 100 g), approximately one month before the start of the experiment. Except for the first 10 days after arrival, when the animals are housed in groups of 10, they are singly housed with food and water freely available, and maintained on a 12-h light/dark cycle in constant temperature (22±2° C.) and humidity (45±5%) conditions.
Drugs and Drug Administration. Test compounds or vehicle are administered subcutaneously (s.c.), with doses calculated based on the free base. A pharmacologically inert vehicle (e.g., saline) is used. All compounds are administered at a volume of 2 mL/kg. Test compounds (in each case, BIIB-104+Compound 18R together, or either compound alone) and vehicle are administered as described below.
Chronic Mild Stress (CMS) Procedure and Sucrose Preference. Male rats (250-350 g) are habituated to drinking 1% sucrose to establish a stable level of sucrose intake. […]
(§2) After sucrose intake has been measured, rats are dosed with BIIB-104 or vehicle once daily for up to 4 weeks (Table 1).
Sucrose intake is measured once per week, in each case before drug administration for that day (˜24 h after the previous drug administration). […]

Data set [2] shares this test system. In words: Elevated plus maze (EPM) in CMS rats. It is filed as in vivo, rat. The settings on record: stressed rats; third week of drug testing (typically day 16); 5-min test. As to the method:
as §1
Drugs and Drug Administration. Test compounds or vehicle are administered subcutaneously (s.c.), with doses calculated based on the free base. A pharmacologically inert vehicle (e.g., saline) is used. […]
as §2
Elevated Plus Maze (EPM), Animals are tested in two non-transparent boxes, which consist of two open (50×11×40 cm) and two closed (50×11×40 cm) arms. […] The animals are placed in the center of the apparatus and the time spent in each arm, and number of entries into open and closed arms are recorded during a 5-min test.
All rats (all groups in Table 1) are assessed in the EPM in the third week of drug testing (typically day 16). Stressed vehicle-treated rats (S1) have higher levels of anxiety measured by a lower % time spent in open arms compared to control vehicle-treated rats (C1). […]

The test system is the same in data set [3]. Put plainly: Novel object recognition (NOR) test in CMS rats. The settings on record: stressed rats; third week of drug testing (typically day 17). It is filed as in vivo, rat. The protocol: as §1
Drugs and Drug Administration. Test compounds or vehicle are administered subcutaneously (s.c.), with doses calculated based on the free base. A pharmacologically inert vehicle (e.g., saline) is used. All compounds are administered at a volume of 2 mL/kg. […]
as §2
Novel Object Recognition (NOR) Test. […] Rats are returned to the open field and the duration of exploration of each object is recorded in a 5-min test. A recognition index is calculated according to the formula: time of novel object exploration minus time of familiar object exploration, divided by total exploration time (novel plus familiar objects). During NOR sessions, the number of line crossings is recorded as a measure of locomotor activity.
All rats (all groups in Table 1) are assessed in the NOR in the third week of drug testing (typically day 17). […]

The test system of data set [4] is Male C57BL/6 mice. In words: Accelerating rotarod. It is filed as in vivo, mouse. The settings on record: Compound 18R 3.2, 10 or 32 mg/kg s.c.; BIIB-104 0.03 mg/kg s.c. 0-30 min prior; 5 min and 30 min after second injection. The protocol:
Animals. Male C57BL/6 mice (8-10 weeks old) are housed in groups of >2 under standard environmentally controlled conditions (22 to 24° C.; relative humidity of 30 to 70%) with a standard 12-h light cycle. Food and water are available ad libitum.
(§3) Drugs and Drug Administration. Test compounds and vehicle are administered subcutaneously (s.c.), with doses calculated based on the free base. A pharmacologically inert vehicle is used. All compounds are administered at a volume of 10 mL/kg. Test compounds (in each case, BIIB-104+Compound 18R together, or either compound alone) and vehicle are administered as described below.
Rotarod Procedure. Mice will be trained to stay on a rotating bar (‘rotarod’) on days −4 and −2 by being placed on a bar rotating at 4 rpm for 3 min for 3 sessions separated by ˜10 min. On days −1 and 0, this will be repeated using a faster speed of 15 rpm. Mice that have a fall latency <80 s during training will be omitted from the study. On day 1, mice will be administered (s.c.) vehicle or BIIB-104 (0.03 mg/kg) 0-30 min prior to vehicle or Compound 18R (3.2, 10, or 32 mg/kg), for a total of 8 groups of n=10-12/group. Five min after the second injection, mice will be placed on the rotarod which will accelerate from 4 to 40 rpm over 300 s. The latency of mice to fall will be recorded. […]

Data set [5] concerns Male C57BL/6 mice. In words: Visual discrimination task. It is filed as in vivo, mouse. The settings on record: Compound 18R 10, 32 or 100 mg/kg s.c.; BIIB-104 0.03 mg/kg s.c. 0-30 min prior. The protocol:
Animals Male C57BL/6 mice (8-10 weeks old) are housed in groups of >2 under standard environmentally controlled conditions (22 to 24° C.; relative humidity of 30 to 70%) with a standard 12-h light cycle. Five days prior to the start of operant conditioning experiments, all subjects are placed on a food restriction diet designed to maintain a stable 80-85% of free feeding weight.
as §3, with “below. Mice are tested in a randomized cross-over design such that different compound combinations are tested in the same mice and a sample size of n=8-12/group is achieved. Compound testing sessions are separated by at least 3 days.” for “below.”
Visual Discrimination Procedure. A cohort of mice is trained to perform the visual discrimination task according to published methods (Dillon et al., 2009, Behavioural Brain Research 204, 67-76). The testing apparatus is a standard operant chamber (Med Associates, St Albans, VT). […]

With `CN[C@@]1(c2ccc(F)cc2)CCCCC1=O` [Compound 18R], in the data set with Male Sprague Dawley rats, the immobility time result is “dose-dependent decrease in immobility time”. In addition, the sucrose intake entry in data set [1] (vs vehicle-treated stressed rats, Compound 18R 1.5 mg/kg i.p. day 1, 24 h later) is given as “increase in sucrose intake”. For the same compound, the “durability of the effect on sucrose intake” value in data set [1] (Compound 18R day 1, then vehicle (S2) or BIIB-104 0.03 mg/kg s.c. (S4) daily days 2-28) is listed as 1-2 weeks. The “time spent in open arms” value in data set [2] is on record as “greater time in the open arms than stressed vehicle-treated rats (S1), but less time than unstressed vehicle-treated rats (C1)”. Moreover, the “preference for the novel object (recognition index)” value in data set [3] is on record as “limited preference for exploring the novel object”. The “latency to fall off the rotarod” value in the data set with Male C57BL/6 mice [4] is “dose-dependently reduces the latency of mice to fall”. For the same compound, in the data set on Male C57BL/6 mice [5], the “visual discrimination test accuracy” value is recorded as “dose-dependently decreases visual discrimination test accuracy”.
Consider “pesampator [BIIB-104, reference compound]”, for which the “latency to fall off the rotarod” value in the data set with Male C57BL/6 mice [4] was “does not change latency to fall”.

These data come from patent US20250161264A1, “(AMPAR-PAM)-NMDA RECEPTOR ANTAGONIST COMBINATION THERAPY FOR TREATMENT OF MENTAL CONDITIONS AND DISORDERS” (Gilgamesh Pharmaceuticals, Inc., priority 2022, published 2025).
